In patent US12497460B2, “Anti-MSR1 antibodies and methods of use thereof” (REGENERON PHARMACEUTICALS, INC., priority 2018, dated 2025):
Like-named read-outs stand apart in the source and are kept apart here. Marks after values point to notes of the source that are not given here. Values belong to the compound of their own block, whether it stands above or below them.

Key:
[1] = system: LPS-induced IL-1β release in differentiated THP-1 cells; assay: LPS-mediated IL-1β release assay; format: cell-based, human; conditions: for IC50: Homo sapiens, 100 ng/ml LPS for 5 hours, read-out: IC50, inhibition of LPS-induced IL-1β secretion
Protocol: To test the anti-inflammatory properties of anti-MSR1 antibody-steroid conjugates in vitro, a lipopolysaccharide (LPS)-mediated IL-1β release assay was performed. For the assay, THP-1 cells were seeded onto 96 well plates at 40,000 cells/well in media containing RPMI supplemented with 10% FBS and pencillin/streptomycinin and differentiated with 200 nM Phorbol Myristate Acetate (PMA) for 3 days. After the 3-day differentiation period, three-fold serial dilutions of antibody drug conjugates, unconjugated antibodies, or free payloads in fresh media were added to the cells at final concentration ranging from 100 nM to 0.01 nM. Media alone served as a blank control. Subsequently at 24, 48, or 72 hours later, cells were treated with 100 ng/ml LPS (InVivoGen, Cat #tlrl-eklps) for 5 hours. The cell media was then collected, and IL-1β levels were measured using a V-PLEX Proinflammatory Panel 1 human kit (Meso Scale Diagnostics, Cat #15049D-2) as per manufacturer's instructions. Subsequently, the plate was read on a Meso Scale Diagnostics instrument.
IC50 values were determined from a four-parameter logistic equation over a 10-point response curve (GraphPad Prism). All IC50 values are expressed in M (molar) concentration. The IC50 values and IL-1β amount at the maximum concentration of antibody-steroid conjugates or controls are shown in Table 22 each of the time point tested.

[2] = system: Msr1^hu/hu ApoE^−/− mice, peritoneal macrophages; assay: LPS-mediated expression of CD80 on peritoneal macrophages (flow cytometry); format: in vivo, mouse; conditions: administered 2 hours before
Protocol: (§1) Assay protocol for ex vivo LPS-induced responses. In ex vivo LPS challenge experiments, mice were intraperitoneally administered with 10 μL/g of anti-MSR1 antibody-steroid conjugates (H1H21234N-N297Q-LP13), isotype control steroid conjugate (Isotype control-LP13), unconjugated anti-MSR1 antibody (H1H21234N-N297Q) and isotype control antibodies at different time points (24, 48, and 72 hours) prior to harvesting the peritoneal cells from peritoneal cavity. […] All mice were sacrificed at 0 hour time point and peritoneal cells were obtained from the peritoneum by the peritoneal lavage technique. In brief, 5 mL of ice cold 1×PBS (ThermoFisher Scientific, Cat #20012027) containing 2% BSA (Gibco, Cat #A9576) and 0.6 mM EDTA (ThermoFisher Scientific, Cat #15575020) were injected into the peritoneal cavity using 27 g needle. […] The resuspended cells were plated at 500,000 cells per well in 24-well tissues culture plates and incubated with or without 10 ng/mL of LPS for 18 hours.
Assay protocol for in vivo LPS-induced responses. In in vivo LPS challenge experiments, mice were intraperitoneally administered with 10 μL/g of decreasing concentrations of anti-MSR1 antibody-steroid conjugates (H1H21234N-N297Q-LP13) and isotype control steroid conjugate (Isotype control-N297Q-LP13) at 24 hours prior to in vivo LPS challenge. PBS and free steroid P4 were intraperitoneally injected at 2 hours prior to in vivo LPS challenge. At 0 hour time point, three large drops of blood (volume ˜ 100 μL) were collected from the maxillary vein of each mouse into serum gel separator tubes. The tubes were centrifuged at 2200-2500 rpm for 15 minutes, and the serum was collected into 96-well plates for subsequent measurement of cytokines. At 18 hours post in vivo LPS challenge, the peritoneal cells were obtained from periotenal cavity as aforementioned for subsequent flow cytometry analysis.
Analysis of expression of activation markers on peritoneal macrophages after LPS ex vivo challenge. Upon collection of supernatants for cytokine analysis, the plates were washed twice with 1×PBS w/o Ca^++/Mg2^++ (ThermoFisher Scientific, Cat #14190144), and the adherent peritoneal cells were harvested by addition of 250-300 μL of cold Macrophage Detachment Solution DXF (PromoCell, Cat #C41330) for 40 minutes. The detached cells were collected into 50-mL tubes and centrifuged at 350×g for 15 minutes. After two washes with 1×PBS supplemented with 2 mM EDTA, the cells were resuspended in Cell Staining Buffer (Biolegend, #420201) and plated at 1×10^6 cells per well in a 96-well V bottom plate. […] Data were analyzed using FlowJo (Tree Star).

[3] = system: Msr1^hu/hu ApoE^−/− mice, peritoneal cells; assay: Ex vivo LPS-induced cytokine production by peritoneal cells after in vivo dosing; parameters: species or system mouse; conditions: administered 2 hours before peritoneal cell isolation; ex vivo LPS
Protocol: To examine the anti-inflammatory effect of the anti-MSR1 antibody-steroid conjugates, an ex-vivo and in vivo LPS-induced inflammatory immune response model was performed.
Generation of a mouse inflammatory immune response model. Mice homozygously expressing human MSR1 extracellular domain in place of the mouse MSR1 extracellular domain and with a homozygous deletion of the ApoE gene were utilized (resulting mice referred to as Msr1^hu/hu ApoE^−/− mice).
as §1
Measurement of cytokines at 18 hours post-LPS ex vivo challenge. Supernatants were collected into 96-well round bottom tissue culture plates at 18 hours post-ex vivo LPS challenge and stored at […] until further analysis. Cytokine concentrations in the supernatants were measured using a Proinflammatory Panel 1 (mouse) multiplex immunoassay kit (MesoScale Diagnostics, Cat #K15048D) according to manufacturer's instructions. Electrochemiluminescence was read on a Meso Scale Diagnostics SECTOR® instrument. Data analysis was performed using GraphPad Prism™ software. Statistical significance within the groups was determined by one-way Anova with Turkey's multiple comparison post-test (*p<0.01; **p<0.001; ***p<0.0001).

hMSR1/ApoE-KO mice [4] = assay: Anti-type II collagen antibody-induced arthritis (CAIA), clinical scores; format: in vivo, mouse
Protocol: An MSR1-non-cytotoxic antibody drug (ncADC) conjugate was tested in anti-type II collagen antibody-induced arthritis (CAIA) in vivo; cytokine detection in inflamed joints using Proinflammatory Panel 1 (mouse) Multiplex Immunoassay kit (MSD)
To further examine the anti-inflammatory effect of the anti-MSR1 Ab-steroid ncADC, the ncADC was evaluated in a collagen-antibody induced arthritis (CAIA) model in vivo. For the model, mice homozygously expressing human MSR1 extracellular domain and transmembrane domain in place of mouse MSR1 extracellular and transmembrane domains (humanized MSR1) and with a homozygous deletion of the ApoE gene (ApoE-KO) were utilized (resulting mice referred to as hMSR1/ApoE-KO mice).
(§2) To induce CAIA, hMSR1/ApoE-KO mice were intraperitoneally injected with an 8 mg/kg mixture of five anti-type II collagen mAbs (Chondrex, Cat #53100, Lot #180140) on day 0, followed by intraperitoneal administration with 50 μg lipopolysaccharide (LPS; 0111:B4; Chondrex, Cat #53100, Lot #180141) on day 3. Severity of the […] levels of arthritis was graded up to 13 days after mAb injection in each of the four limbs per mouse on a […]. The criteria for the grading were as follows: 0, normal; 1, mild redness and swelling of ankle/wrist or individual digits; 2, moderate redness and swelling of ankle/wrist; 3, severe redness and swelling of the entire paw including the digits; 4, maximal swelling in limbs involving multiple joints. The maximum value of the sum of the scores obtained from the four limbs of each mouse was 16. […] PBS, unconjugated anti-MSR1 Ab (H1H21234N-N297Q) and free steroid payload (P4-1), were intraperitoneally injected every other day or daily (referred to as P4-1 ED). All mice were sacrificed on day 13 and inflamed patella were collected for subsequent homogenization and cytokine detection.

hMSR1/ApoE-KO mice [5] = assay: CAIA, pro-inflammatory cytokines in joint homogenates; format: in vivo, mouse
Protocol: as §2
Inflamed knee patella were collected in 2 mL microcentrifuge tubes containing two tungsten carbide beads (Qiagen, Cat #69997) and 500 μL of T-per buffer (Thermo Scientific, Cat #78510, Lot #QF217759) containing protease inhibitor cocktail and 0.5M EDTA (Thermo Scientific, Cat #78444, Lot #RF231047). Tissues were disrupted at the frequency of 30s^−1 for 10 minutes using Qiagen Tissue Lyser II, centrifuged at 14,000 rpm for 7 minutes, and then supernatants were collected without disturbing the pellet. Cytokine concentrations in the supernatants were measured using a Proinflammatory Panel 1 (mouse) multiplex immunoassay kit (MesoScale Discovery, Cat #K15048D) according to the manufacturer's instructions. In brief, 50 μL/well of calibrators and samples (diluted in Diluent 41) were added to the plates pre-coated with capture antibodies and incubated at room temperature while shaking at 700 rpm for 2 hours. The plates were then washed 3 times with 1×PBS containing 0.05% (w/v) Tween-20, followed by the addition of 25 μL of Detection Antibody Solution diluted in Diluent 45. After 2-hour incubation at room temperature while shaking, the plates were washed 3 times, and 150 μL of 2× Read Buffer was added to each well. Electrochemiluminescence was immediately read on MSD Spector© instrument. Cytokine concentrations were normalized per total protein content in tissue homogenates measured using Bradford protein assay (BioRad, Cat #5000006, Lot #64144266). Data analysis was performed using GraphPad Prism™ software. Statistical significance within the groups was determined by one-way Anova with Turkey's multiple comparison post-test (*p<0.01; **p<0.001; ***p<0.0001).

[6] = joint homogenates, 2.95 mg/kg every 2 days

IC50 ([1]; THP-1, 24-hour time point): 0.42 nM | IC50 ([1]; THP-1, 48-hour time point): 0.794 nM | IC50 ([1]; THP-1, 72-hour time point): 0.543 nM
SMILES: C[C@@H]1C[C@H]2[C@@H]3CCC4=CC(=O)C=C[C@]4(C)[C@@]3(F)[C@@H](O)C[C@]2(C)[C@@]1(O)C(=O)CO [Dexamethasone, dexamethasone, reference compound]
IL1beta released at max concentration tested ([1]; 24 hour treatment before LPS): 45.33 pg/mL | IL1beta released at max concentration tested ([1]; 48 hour treatment before LPS): 11.8 pg/mL | IL1beta released at max concentration tested ([1]; 72 hour treatment before LPS): 13.34 pg/mL | LPS-mediated expression of CD80, pMΦ Cells ([2]; hMSR1+F4/80+CD11b+ peritoneal macrophages): 77.69 ± 2.6 % relative to PBS/LPS-treatment | LPS-mediated expression of CD80, non-pMΦ Cells ([2]; hMSR1−F4/80−CD11b− cells): 99.6 ± 5.8 % relative to PBS/LPS-treatment | Cytokine IL-6 [3]: 134.5 ± 18.2* ng/mL | Cytokine KC-GRO [3]: 19.9 ± 1.5 ng/mL | Cytokine TNF-α [3]: 0.63 ± 0.11* ng/mL

SMILES: CCC[C@@H]1O[C@@H]2C[C@H]3[C@@H]4C[C@H](F)C5=CC(=O)C=C[C@]5(C)[C@@]4(F)[C@@H](O)C[C@]3(C)[C@]2(C(=O)CN)O1 [P4-1, (1S,2S,4R,6R,8S,9S,11S,12R,13S,19S)-8-(2-Aminoacetyl)-12,19-difluoro-11-hydroxy-9,13-dimethyl-6-propyl-5,7-dioxapentacyclo[10.8.0.0^2,9.0^4,8.0^13,18]icosa-14,17-dien-16-one]
Clinical Score (hMSR1/ApoE-KO mice [4]; 2.95 mg/kg, every 2 days d6-d12): 9.4 ± 2.46 | inhibition of CAIA (hMSR1/ApoE-KO mice [4]; dosed every day (P4-1ED), compared with H1H21234N-N297Q-P4-3 at 21 mg/kg): Comparable inhibition of CAIA | severity of CAIA (clinical scores) (hMSR1/ApoE-KO mice [4]; every other day): did not attenuate CAIA | pro-inflammatory cytokine levels in inflamed joints (hMSR1/ApoE-KO mice [5]; administered every other day): No effect | Cytokines IL-1β (hMSR1/ApoE-KO mice [5]; [6]): 20.6 ± 4.3 pg per mg of total protein | Cytokines IL-6 (hMSR1/ApoE-KO mice [5]; [6]): 131.4 ± 40.9 pg per mg of total protein | Cytokines KC-GRO (hMSR1/ApoE-KO mice [5]; [6]): 8.9 ± 9 pg per mg of total protein | Cytokines TNF-α (hMSR1/ApoE-KO mice [5]; [6]): 8.3 ± 1.9 pg per mg of total protein
